Experimental data: US9113629B2, “4-amino-6-(4-substituted-phenyl)-picolinates and 6-amino-2-(4-substituted-phenyl)-pyrimidine-4-carboxylates and their use as herbicides” (DOW AGROSCIENCES LLC, priority 2013, dated 2015)
Where two headings read alike, the source gives them in different places.

Columns and labels:
[1] = system: Key Grass and Sedge Weeds as well as Grass Crops; test: Post-emergent Test II herbicidal activity (Table 6); format: in vivo; details: post-emergence, 336 h; for pest or weed control at 70 g/ha: application rate 70 g ai/ha; for pest or weed control at 140 g/ha: application rate 140 g ai/ha
In short: (§1)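 Percent injury, 0 (none) to 100 (complete kill), was judged visually 14 d after spraying young plants at the first or second true leaf stage with compound in an acetone/DMSO aqueous carrier at 187 L/ha. Plants were kept in a greenhouse at 23–29 °C by day.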

[2] = system: Key Broadleaf Weed and Crop Species; test: Post-emergent Test II herbicidal activity (Table 5); format: in vivo; details: post-emergence, 336 h, post-emergent, 14 days after application; for pest or weed control at 70 g/ha: 70 g ai/ha; for pest or weed control at 140 g/ha: 140 g ai/ha
In short: as §1

[3] = Triticum aestivum, TRZSS (wheat), read-out: Visual Growth Reduction (%) 14 Days After Application, TRZSS
[4] = CYPES: yellow nutsedge (Cyperus esculentus), read-out: Visual Growth Reduction (%) 14 Days After Application, CYPES
[5] = DIGSA: crabgrass (Digitaria sanguinalis), read-out: Visual Growth Reduction (%) 14 Days After Application, DIGSA
[6] = ECHCG: barnyardgrass (Echinochloa crus-galli), read-out: Visual Growth Reduction (%) 14 Days After Application, ECHCG
[7] = ORYSA: rice (Oryza sativa), read-out: Visual Growth Reduction (%) 14 Days After Application, ORYSA
[8] = SETFA: giant foxtail (Setaria faberi), read-out: Visual Growth Reduction (%) 14 Days After Application, SETFA
[9] = SORVU: grain sorghum (Sorghum vulgare), read-out: Visual Growth Reduction (%) 14 Days After Application, SORVU
[10] = ZEAMX: maize, corn (Zea mays), read-out: Visual Growth Reduction (%) 14 Days After Application, ZEAMX
[11] = ABUTH: velvetleaf (Abutilon theophrasti), read-out: Visual Growth Reduction (%) 14 Days After Application ABUTH
[12] = AMARE: redroot pigweed (Amaranthus retroflexus), read-out: Visual Growth Reduction (%) 14 Days After Application AMARE
[13] = BRSNN: oilseed-rape, canola (Brassica napus), read-out: Visual Growth Reduction (%) 14 Days After Application BRSNN
[14] = CHEAL: lambsquarters (Chenopodium album), read-out: Visual Growth Reduction (%) 14 Days After Application CHEAL
[15] = EPHHL: wild poinsettia (Euphorbia heterophylla), read-out: Visual Growth Reduction (%) 14 Days After Application EPHHL
[16] = HELAN: sunflower (Helianthus annuus), read-out: Visual Growth Reduction (%) 14 Days After Application HELAN
[17] = VIOTR: wild pansy (Viola tricolor), read-out: Visual Growth Reduction (%) 14 Days After Application VIOTR

Row | melting point [°C] | SMILES | pest or weed control at 70 g/ha [1, 3] [%] | pest or weed control at 140 g/ha [1, 3] [%] | pest or weed control at 70 g/ha [1, 4] [%] | pest or weed control at 140 g/ha [1, 4] [%] | pest or weed control at 70 g/ha [1, 5] [%] | pest or weed control at 140 g/ha [1, 5] [%] | pest or weed control at 70 g/ha [1, 7] [%] | pest or weed control at 140 g/ha [1, 7] [%] | pest or weed control at 70 g/ha [1, 8] [%] | pest or weed control at 140 g/ha [1, 8] [%] | pest or weed control at 70 g/ha [1, 9] [%] | pest or weed control at 140 g/ha [1, 9] [%] | pest or weed control at 70 g/ha [1, 10] [%] | pest or weed control at 140 g/ha [1, 10] [%] | pest or weed control at 70 g/ha [2, 11] [%] | pest or weed control at 140 g/ha [2, 11] [%] | pest or weed control at 70 g/ha [2, 12] [%] | pest or weed control at 140 g/ha [2, 12] [%] | pest or weed control at 70 g/ha [2, 13] [%] | other results
1 | 164.2 to 166.8 | C#Cc1ccc(-c2nc(C(=O)OC)c(Cl)c(N)c2Cl)cc1 [Compound 34] | 60 to 74 | 60 to 74 | 60 to 74 | 60 to 74 | 0 to 29 | 45 to 59 | 0 to 29 | 0 to 29 | 75 to 84 | 85 to 94 | 30 to 44 | 45 to 59 | 60 to 74 | 60 to 74 | 95 to 100 | 95 to 100 | 95 to 100 | 95 to 100 | 85 to 94 | pest or weed control at 70 g/ha [1, 6]: 0 to 29%; pest or weed control at 140 g/ha [1, 6]: 0 to 29%; pest or weed control at 140 g/ha [2, 13]: 95 to 100%; pest or weed control at 70 g/ha [2, 14]: 95 to 100%; pest or weed control at 140 g/ha [2, 14]: 95 to 100%; pest or weed control at 70 g/ha [2, 15]: 75 to 84%; pest or weed control at 140 g/ha [2, 15]: 85 to 94%; pest or weed control at 70 g/ha [2, 16]: 95 to 100%; pest or weed control at 140 g/ha [2, 16]: 95 to 100%; pest or weed control at 70 g/ha [2, 17]: 0 to 29%; pest or weed control at 140 g/ha [2, 17]: 0 to 29%
2 | 188.7 to 190.3 | Nc1c(Cl)c(C(=O)O)nc(-c2ccc(I)cc2)c1Cl [Compound 173] | 60 to 74 | 60 to 74 | 95 to 100 | 95 to 100 | 60 to 74 | 75 to 84 | 0 to 29 | 0 to 29 | 75 to 84 | 85 to 94 | 75 to 84 | 85 to 94 | 60 to 74 | 75 to 84 | 60 to 74 | 85 to 94 | 85 to 94 | 95 to 100 | 85 to 94 | pest or weed control at 70 g/ha [1, 6]: 75 to 84%; pest or weed control at 140 g/ha [1, 6]: 75 to 84%; pest or weed control at 140 g/ha [2, 13]: 85 to 94%; pest or weed control at 70 g/ha [2, 14]: 85 to 94%; pest or weed control at 140 g/ha [2, 14]: 85 to 94%; pest or weed control at 70 g/ha [2, 15]: 0 to 29%; pest or weed control at 140 g/ha [2, 15]: 45 to 59%; pest or weed control at 70 g/ha [2, 16]: 95 to 100%; pest or weed control at 140 g/ha [2, 16]: 95 to 100%; pest or weed control at 70 g/ha [2, 17]: 0 to 29%; pest or weed control at 140 g/ha [2, 17]: 0 to 29%
3 | 164.9 to 166.1 | Nc1c(Cl)c(C(=O)O)nc(-c2ccc(Br)cc2)c1Cl [Compound 125] | 60 to 74 | 60 to 74 | 95 to 100 | 95 to 100 | 60 to 74 | 60 to 74 | 0 to 29 | 0 to 29 | 85 to 94 | 95 to 100 | 60 to 74 | 85 to 94 | 60 to 74 | 60 to 74 | 95 to 100 | 95 to 100 | 95 to 100 | 95 to 100 | 95 to 100 | pest or weed control at 140 g/ha [2, 13]: 95 to 100%; pest or weed control at 70 g/ha [2, 14]: 95 to 100%; pest or weed control at 140 g/ha [2, 14]: 95 to 100%; pest or weed control at 70 g/ha [2, 15]: 30 to 44%; pest or weed control at 140 g/ha [2, 15]: 45 to 59%; pest or weed control at 70 g/ha [2, 16]: 95 to 100%; pest or weed control at 140 g/ha [2, 16]: 95 to 100%; pest or weed control at 70 g/ha [2, 17]: 0 to 29%; pest or weed control at 140 g/ha [2, 17]: 0 to 29%
4 | 186 to 187.3 | Nc1cc(-c2ccc(Br)cc2F)nc(C(=O)O)c1Cl [Compound 74] | 45 to 59 | 60 to 74 | 95 to 100 | 95 to 100 | 85 to 94 | 85 to 94 | 0 to 29 | 30 to 44 | 75 to 84 | 85 to 94 | 85 to 94 | 85 to 94 | 75 to 84 | 75 to 84 | 95 to 100 | 95 to 100 | 95 to 100 | 95 to 100 | 85 to 94 | pest or weed control at 70 g/ha [1, 6]: 85 to 94%; pest or weed control at 140 g/ha [1, 6]: 85 to 94%; pest or weed control at 140 g/ha [2, 13]: 85 to 94%; pest or weed control at 70 g/ha [2, 14]: 95 to 100%; pest or weed control at 140 g/ha [2, 14]: 95 to 100%; pest or weed control at 70 g/ha [2, 15]: 95 to 100%; pest or weed control at 140 g/ha [2, 15]: 95 to 100%; pest or weed control at 70 g/ha [2, 16]: 95 to 100%; pest or weed control at 140 g/ha [2, 16]: 95 to 100%; pest or weed control at 70 g/ha [2, 17]: 95 to 100%; pest or weed control at 140 g/ha [2, 17]: 95 to 100%
